Marks after values point to notes of the source that are not given here. Strand notation (5' to 3'): a small letter for the sugar, then the base; units joined by * are phosphorothioate-linked, units joined directly phosphodiester-linked; [ ] holds rarer units or linkages, { } end groups; capitals alone tell only the bases. k = constrained ethyl (cEt); [5mC] = 5-methylcytosine; d = 2'-deoxy (DNA)
Legend:
Yap1 mRNA [1] = assay: Yap1 mRNA in SNU449 cells in combination with sorafenib (Example 48); assay type: cell-based, human; conditions: free uptake, approximately 48 hours
Description: Modified oligonucleotides described in the studies above were tested at various doses in hepatocellular carcinoma cell line SNU449. ION No. 792169, described herein above, was used as a control modified oligonucleotide. ION No. 715487 was used to target Yap1 RNA. […] After approximately 48 hours, Yap1 mRNA levels were measured.
Yap1 mRNA knockdown in tumors was measured by RT-qPCR as previously described using the Human Yap1 primer-probe set RTS4814. Yap1 mRNA levels were normalized to actin-beta content, as measured by primer probe set RTS5002. Results are presented in the tables below as percent control of the amount of Yap1 mRNA relative to PBS treated cells (% control).

NCI H747 cells = assay: Cell proliferation assay in NCI H747 cells, CellTiter-Glo (Example 31); assay type: cell-based, human; conditions: free uptake, 7 days
Description: Modified oligonucleotides described in the studies above were tested at various doses in colorectal adenocarcinoma cell line NCI H747. A control oligonucleotide 792169 was also tested.
Cultured NCI H747 cells at a density of 3000 cells/well were treated using free uptake with modified oligonucleotides diluted to concentrations described in the tables below. After 7 days, cell proliferation was measured using the luminescent cell viability CellTiter-Glo® 2.0 Assay (Promega). Results are presented in the tables below as percent control of the amount of luminescence in samples treated with modified oligonucleotides relative to untreated control cells (% UTC).

Yap1 mRNA [2] = assay: Yap1 mRNA in BICR-22 cells, RNA analysis (Example 35); assay type: cell-based, human; conditions: free uptake, approximately 48 hours
Description: Modified oligonucleotides described in the studies above were tested at various doses in tongue squamous carcinoma (lymph node metastasis) cell line BICR-22. A control oligonucleotide 792169, described herein above, was also tested.
(§1) Cultured BICR-22 cells at a density of 5000 cells per well were treated using free uptake with modified oligonucleotides diluted to concentrations described in the tables below. After approximately 48 hours, Yap1 mRNA levels were measured as previously described using the Human Yap1 primer-probe set RTS4814. Yap1 mRNA levels were normalized to actin-beta content, as measured by primer probe set RTS5002. Results are presented in the tables below as percent control of the amount of Yap1 mRNA relative to untreated control cells (% UTC).

Yap1 mRNA [3] = assay: Yap1 mRNA in SCC-25 cells, RNA analysis (Example 42); assay type: cell-based, human; conditions: free uptake, approximately 48 hours
Description: Modified oligonucleotides described in the studies above were tested at various doses in tongue squamous cell carcinoma cell line SCC-25. A control oligonucleotide 792169, described herein above, was also tested.
as §1, with “SCC-25” for “BICR-22”

Yap1 mRNA [4] = assay: Yap1 mRNA in BICR56 cells, RNA analysis (Example 33); assay type: cell-based, human; conditions: free uptake, approximately 48 hours
Description: Modified oligonucleotides described in the studies above were tested at various doses in squamous cell carcinoma adherent keratinocyte cell line BICR56. A control oligonucleotide 792169 was also tested.
as §1, with “BICR56” for “BICR-22”

[5] = rat, in vivo, sc, 50 mg/kg
Description: Male Sprague-Dawley rats were maintained on a 12-hour light/dark cycle and fed ad libitum with Purina normal rat chow. Groups of 4 Sprague-Dawley rats each were weekly injected subcutaneously with 50 mg/kg of Ionis oligonucleotide for 6 weeks (total 7 doses). Forty-eight hours after the last dose, the rats were euthanized; and organs, urine and plasma were harvested for further analysis.
To evaluate the effect of Ionis oligonucleotides on kidney function, urinary levels of total protein and creatinine were measured using an automated clinical chemistry analyzer (Hitachi Olympus AU400c, Melville, N.Y.).

[6] = oligonucleotide at 0.04 uM, sorafenib 0 uM
[7] = oligonucleotide at 0.04 uM, sorafenib 0.37 uM
[8] = oligonucleotide at 0.04 uM, sorafenib 3.33 uM
[9] = oligonucleotide at 0.04 uM, sorafenib 10 uM
[10] = oligonucleotide at 0.04 uM, sorafenib […]
[11] = oligonucleotide at 0.2 uM, sorafenib 0 uM
[12] = oligonucleotide at 0.2 uM, sorafenib 0.37 uM
[13] = oligonucleotide at 0.2 uM, sorafenib 3.33 uM
[14] = oligonucleotide at 0.2 uM, sorafenib 10 uM
[15] = oligonucleotide at 0.2 uM, sorafenib […]
[16] = oligonucleotide at 1 uM, sorafenib 0 uM
[17] = oligonucleotide at 1 uM, sorafenib 0.37 uM
[18] = oligonucleotide at 1 uM, sorafenib 3.33 uM
[19] = oligonucleotide at 1 uM, sorafenib 10 uM
[20] = oligonucleotide at 1 uM, sorafenib […]
[21] = oligonucleotide at 5 uM, sorafenib 0 uM
[22] = oligonucleotide at 5 uM, sorafenib 0.37 uM
[23] = oligonucleotide at 5 uM, sorafenib 3.33 uM
[24] = oligonucleotide at 5 uM, sorafenib 10 uM
[25] = oligonucleotide at 5 uM, sorafenib […]

Substance | YAP1 mRNA (Yap1 mRNA [1]; [6]) [% control] | YAP1 mRNA (Yap1 mRNA [1]; [7]) [% control] | YAP1 mRNA (Yap1 mRNA [1]; [8]) [% control] | YAP1 mRNA (Yap1 mRNA [1]; [9]) [% control] | Antiproliferative effect (cell proliferation, luminescence) (NCI H747 cells; 0.04 μM) [% UTC] | Antiproliferative effect (cell proliferation, luminescence) (NCI H747 cells; 0.2 μM) [% UTC] | Antiproliferative effect (cell proliferation, luminescence) (NCI H747 cells; 1 μM) [% UTC] | Antiproliferative effect (cell proliferation, luminescence) (NCI H747 cells; 5 μM) [% UTC] | human Yap1 mRNA expression (Yap1 mRNA [2]; 0.04 μM) [% UTC] | human Yap1 mRNA expression (Yap1 mRNA [2]; 0.2 μM) [% UTC] | human Yap1 mRNA expression (Yap1 mRNA [2]; 1 μM) [% UTC] | human Yap1 mRNA expression (Yap1 mRNA [2]; 5 μM) [% UTC] | human Yap1 mRNA expression (Yap1 mRNA [3]; 0.08 μM) [% UTC] | human Yap1 mRNA expression (Yap1 mRNA [3]; 0.4 μM) [% UTC] | human Yap1 mRNA expression (Yap1 mRNA [3]; 2 μM) [% UTC] | human Yap1 mRNA expression (Yap1 mRNA [3]; 10 μM) [% UTC] | human Yap1 mRNA expression (Yap1 mRNA [4]; 0.04 μM) [% UTC] | human Yap1 mRNA expression (Yap1 mRNA [4]; 0.2 μM) [% UTC] | human Yap1 mRNA expression (Yap1 mRNA [4]; 1 μM) [% UTC] | human Yap1 mRNA expression (Yap1 mRNA [4]; 5 μM) [% UTC] | other results
715487 (kA*kT*kT*dA*d[5mC]*dT*dT*d[5mC]*dA*dT*dA*dG*d[5mC]*kT*kT*kA) [compound 715487] | 98 | 97 | 83 | 78 | 91 | 86 | 65 | 42 | 82 | 45 | 23 | 13 | 70 | 32 | 16 | 11 | 68 | 28 | 16 | 11 | YAP1 mRNA (Yap1 mRNA [1]; [10]): 77 % control; YAP1 mRNA (Yap1 mRNA [1]; [11]): 54 % control; YAP1 mRNA (Yap1 mRNA [1]; [12]): 51 % control; YAP1 mRNA (Yap1 mRNA [1]; [13]): 45 % control; YAP1 mRNA (Yap1 mRNA [1]; [14]): 46 % control; YAP1 mRNA (Yap1 mRNA [1]; [15]): 44 % control; YAP1 mRNA (Yap1 mRNA [1]; [16]): 30 % control; YAP1 mRNA (Yap1 mRNA [1]; [17]): 23 % control; YAP1 mRNA (Yap1 mRNA [1]; [18]): 21 % control; YAP1 mRNA (Yap1 mRNA [1]; [19]): 20 % control; YAP1 mRNA (Yap1 mRNA [1]; [20]): 22 % control; YAP1 mRNA (Yap1 mRNA [1]; [21]): 9 % control; YAP1 mRNA (Yap1 mRNA [1]; [22]): 8 % control; YAP1 mRNA (Yap1 mRNA [1]; [23]): 7 % control; YAP1 mRNA (Yap1 mRNA [1]; [24]): 8 % control; YAP1 mRNA (Yap1 mRNA [1]; [25]): 7 % control
1198440 (AAGTGTATGTCAGAAG; cEt, 2'-MOE, 5-methylcytosine, phosphorothioate modifications, further chemistry not given here) [compound 1198440] | – | – | – | – | 87 | 66 | 36 | 18 | 44 | 14 | 4 | 4 | 32 | 12 | 8 | 7 | 40 | 10 | 7 | 7 | URINE P/C ratio (total protein to creatinine ratio) [5]: 9
1198439 (AGTGTATGTCAGAAGA; sugar, 5-methylcytosine, phosphorothioate modifications, further chemistry not given here) [compound 1198439] | – | – | – | – | – | – | – | – | – | – | – | – | – | – | – | – | – | – | – | – | URINE P/C ratio (total protein to creatinine ratio) [5]: 8*
CGCCGATAAGGTACAC (cEt gapmer, phosphorothioate backbone, further chemistry not given here) [ION 792169, reference compound] | 115 | 97 | 99 | 102 | 89 | 97 | 91 | 80 | 99 | 98 | 98 | 98 | 87 | 87 | 89 | 86 | 99 | 92 | 85 | 97 | YAP1 mRNA (Yap1 mRNA [1]; [10]): 100 % control; YAP1 mRNA (Yap1 mRNA [1]; [11]): 113 % control; YAP1 mRNA (Yap1 mRNA [1]; [12]): 96 % control; YAP1 mRNA (Yap1 mRNA [1]; [13]): 91 % control; YAP1 mRNA (Yap1 mRNA [1]; [14]): 94 % control; YAP1 mRNA (Yap1 mRNA [1]; [15]): 97 % control; YAP1 mRNA (Yap1 mRNA [1]; [16]): 103 % control; YAP1 mRNA (Yap1 mRNA [1]; [17]): 99 % control; YAP1 mRNA (Yap1 mRNA [1]; [18]): 92 % control; YAP1 mRNA (Yap1 mRNA [1]; [19]): 93 % control; YAP1 mRNA (Yap1 mRNA [1]; [20]): 93 % control; YAP1 mRNA (Yap1 mRNA [1]; [21]): 103 % control; YAP1 mRNA (Yap1 mRNA [1]; [22]): 104 % control; YAP1 mRNA (Yap1 mRNA [1]; [23]): 97 % control; YAP1 mRNA (Yap1 mRNA [1]; [24]): 97 % control; YAP1 mRNA (Yap1 mRNA [1]; [25]): 95 % control

Reference: US11214803B2, “Modulators of YAP1 expression” (Ionis Pharmaceuticals, Inc., priority 2019, dated 2022)
